Laboratory results reported in patent US12044683B2, “Methods and compositions concerning intestinal permeability” (THE REGENTS OF THE UNIVERSITY OF CALIFORNIA, priority 2018, dated 2024).
Where “and” joins values, the source holds several entries; their conditions need not be identical. Equal entries are not always repeated. Marks after values point to notes of the source that are not given here.

What was measured:
[1] = Blue #1 measured by LC/MS in blood/plasma after enteral administration (intestinal permeability test); type: in vivo, human; design: Blue #1 in blood sample, 2 H / Blue #1 in blood sample, 8 H: unit not given here; settings: for Blue #1 in blood sample, 2 H: 2 H after dose; for Blue #1 in blood sample, 8 H: 8 H after dose
Description: High dose: 0.5 mg/kg—e.g, 35 mg in a 70 kg adult, administered as 35 ml of diluted food coloring solution (16 mg/mL diluted 1:16) was used. Five blood samples were drawn per subject (5 ml/draw): 0 hour-prior to dose, 1 hour, 2 hours, 4 hours, 8 hours. Four subjects enrolled. […]
Test subjects with clinically determined sepsis were given enteral Blue #1 at a designated time prior to scheduled blood draw. […] Sepsis was defined by the Surviving Sepsis Campaign [Crit Care Med. 2013; 41(2):580] (presence, probable or documented, of infection together with systemic manifestations such as fever, tachycardia, leukocytosis, hypotension, organ dysfunction, or decreased tissue perfusion). […] The medium dose was: 0.05 mg/kg—e.g. 3.5 mg in a 70 kg adult, administered as 35 mL of diluted food coloring solution (0.1 mg/mL), The low dose was: 0.005 mg/kg—e.g. 0.35 mg in a 70 kg, administered as 35 ml of diluted food coloring solution (0.01 mg/ml). Five blood draws per subject (5 ml/draw): 0 hour—prior to dose, 1 hour, 2 hours, 4 hours, and 8 hours, through clinically indicated, previously placed IV catheters. 14 subjects were used in this study.
Plasma concentration of Blue-1 is shown in relation to time in two patients (10-26-16) and (11-14-16) diagnosed with sepsis. Plasma preparation was done as shown in Example 5C below. Bzi-Arg_pNA was used as a STD. The data obtained is shown in Tables 2 and 3 below and in FIG. 3. The standard graph is FIG. 4.
Subjects were asked to drink a blue food coloring solution, (GATORADE for example) at 0.5 mg/kg (35 ml for a 70 kg human subject). Then a blood sample was drawn (e.g. 5 ml) at five different time periods for each subject: immediately before the drink (time zero), 1 hour, 2 hour, 4 hour and 8 hours after the drink. Subjects in Group 2 also had some of their abdominal fluid from the paracentesis saved to analyze for the presence of the dye, Plasma was prepared according to the method in the following example.
1) one volume of plasma was mixed with 3 volumes of (1:3→IPA:CAN+0.1% TFA);
2) after spin-down, 1800 μl of supernatant was evaporated (for example, by a Speed-Vac)
4) 10 μl of the re-suspended residue was injected onto a mass spectrophotometer for each analysis which corresponds to 25 μl of “pure plasma”. Quantitative analysis of the peak corresponding to the mass of Blue #1 was performed to see how much of the dye had been absorbed. Bzl-Arg_pNA is an example of a standard that worked with this assay.

[2] = Solubility in resuspension solvents (NMP, water); type: physicochemical; settings: NMP and water (50% NMP in water used for resuspension)
[3] = rats; Brown 1980; cited from earlier work
[4] = studies supporting FDA approval for foods, drugs and cosmetics; cited from earlier work
[5] = system: fruit flies; settings: fruit fly bodies viewed under a microscope after being given the dye; cited from earlier work
[6] = Non-septic 1, ICU, no vasopressor, MELD 40, Eating
[7] = Non-septic 2, ICU, no vasopressor, MELD 33, Eating
[8] = Non-septic 3, ICU, no vasopressor, MELD 17, Eating
[9] = Non-septic 4, ICU/Pressor, NE 0.4, MELD 36, Eating
[10] = Normal 1, Normal, no vasopressor, MELD 6, NPO
[11] = Normal 2, Normal, no vasopressor, MELD 6, NPO
[12] = Normal 3, Normal, no vasopressor, MELD 6, NPO
[13] = Normal 4, Normal, no vasopressor, MELD 6, NPO
[14] = Septic 1, ICU/Pressor, NE 0.12, MELD 34, NPO × meds
[15] = Septic 3 (first line so labelled, r15), ICU/Pressor, NE 0.12, MELD 39, NPO × meds
[16] = Septic 3 (second line so labelled, r17), ICU/Pressor, Vaso 4, NE 0.09, PhE 25, MELD 35, NPO × meds
[17] = Septic 4, ICU/Pressor, NE 0.25, MELD 40, NPO × meds
[18] = Septic 5, ICU/Pressor, NE 0.02, MELD 23, Eating
[19] = Septic 6, ICU/Pressor, Vaso 2, MELD 43, NPO × meds
[20] = sepsis patient of Table 2, 1 hr after ingestion
[21] = sepsis patient of Table 2, 2 hr after ingestion
[22] = sepsis patient of Table 2, 4 hr after ingestion
[23] = sepsis patient of Table 2, 8 hr after ingestion
[24] = sepsis patient of Table 3, 1 hr after ingestion
[25] = sepsis patient of Table 3, 2 hr after ingestion
[26] = sepsis patient of Table 3, 4 hr after ingestion
[27] = sepsis patient of Table 3, 8 hr after ingestion

Blue #1 in blood sample, 2 H [1, 6]: 0.5
Blue #1 in blood sample, 8 H [1, 6]: 0.15
Blue #1 in blood sample, 2 H [1, 7]: <0.05
Blue #1 in blood sample, 8 H [1, 7]: <0.05
Blue #1 in blood sample, 2 H [1, 8]: <0.05
Blue #1 in blood sample, 8 H [1, 8]: <0.05
Blue #1 in blood sample, 2 H [1, 9]: <0.05
Blue #1 in blood sample, 8 H [1, 9]: <0.05
Blue #1 in blood sample, 2 H [1, 10]: <0.05
Blue #1 in blood sample, 8 H [1, 10]: <0.05
Blue #1 in blood sample, 2 H [1, 11]: <0.05
Blue #1 in blood sample, 8 H [1, 11]: <0.05
Blue #1 in blood sample, 2 H [1, 12]: <0.05
Blue #1 in blood sample, 8 H [1, 12]: <0.05
Blue #1 in blood sample, 2 H [1, 13]: <0.05
Blue #1 in blood sample, 8 H [1, 13]: <0.05
Blue #1 in blood sample, 2 H [1, 14]: 0.5
Blue #1 in blood sample, 8 H [1, 14]: 0.3
Blue #1 in blood sample, 2 H [1, 15]: 0.7
Blue #1 in blood sample, 8 H [1, 15]: 0.5
Blue #1 in blood sample, 2 H [1, 16]: <0.05
Blue #1 in blood sample, 8 H [1, 16]: <0.05
Blue #1 in blood sample, 2 H [1, 17]: 2.5
Blue #1 in blood sample, 8 H [1, 17]: 4.6**
Blue #1 in blood sample, 2 H [1, 18]: 0.4
Blue #1 in blood sample, 8 H [1, 18]: 0.05
Blue #1 in blood sample, 2 H [1, 19]: 1
Blue #1 in blood sample, 8 H [1, 19]: 1.5
Detectability of Blue #1 by LC/MS (FIG. 2, upper graph) ([1]; non-septic patient): not detectable
Absorption into blood in normal subjects ([1]; normal subjects (four enrolled), high dose 0.5 mg/kg oral, up to 8 hours later): wasn't any detectable absorption
Plasma concentration of Blue-1, Average [1, 20]: 1.41 nM (nM)
Plasma concentration of Blue-1, Average [1, 21]: 2.59 nM (nM)
Plasma concentration of Blue-1, Average [1, 22]: 2.03 nM (nM)
Plasma concentration of Blue-1, Average [1, 23]: 2.18 nM (nM)
Plasma concentration of Blue-1, Average [1, 24]: 1.17 nM (nM)
Plasma concentration of Blue-1, Average [1, 25]: 2.29 nM (nM)
Plasma concentration of Blue-1, Average [1, 26]: 2.67 nM (nM)
Plasma concentration of Blue-1, Average [1, 27]: 3.37 nM (nM)
Detectability of Blue #1 by LC/MS (FIG. 2, lower graph) ([1]; septic patient): detectable
Solubility [2]: soluble in both
SMILES: CCN(Cc1cccc(S(=O)(=O)[O-])c1)c1ccc(C(=C2C=CC(=[N+](CC)Cc3cccc(S(=O)(=O)[O-])c3)C=C2)c2ccccc2S(=O)(=O)[O-])cc1.[Na+].[Na+] [Blue #1, disodium;2-[[4-[ethyl-[(3-sulfonatophenyl)methyl]amino]phenyl]-[4-[ethyl-[(3-sulfonatophenyl)methyl]azaniumlidene]cyclohexa-2,5-dien-1-ylidene]methyl]benzenesulfonate]
Plasma concentration of Blue-1, replicates A, B, C [1, 20]: 1.81 fMoles/μl (nM) and 1.13 fMoles/μl (nM) and 1.29 fMoles/μl (nM)
Plasma concentration of Blue-1, replicates A, B, C [1, 21]: 2.17 fMoles/μl (nM) and 2.89 fMoles/μl (nM) and 2.72 fMoles/μl (nM)
Plasma concentration of Blue-1, replicates A, B, C [1, 22]: 2.30 fMoles/μl (nM) and 1.75 fMoles/μl (nM) and 2.05 fMoles/μl (nM)
Plasma concentration of Blue-1, replicates A, B, C [1, 23]: 2.44 fMoles/μl (nM) and 2.04 fMoles/μl (nM) and 2.05 fMoles/μl (nM)
Plasma concentration of Blue-1, replicates A, B, C [1, 24]: 1.09 fMoles/μl (nM) (2×) and 1.33 fMoles/μl (nM)
Plasma concentration of Blue-1, replicates A, B, C [1, 25]: 2.40 fMoles/μl (nM) and 2.28 fMoles/μl (nM) and 2.18 fMoles/μl (nM)
Plasma concentration of Blue-1, replicates A, B, C [1, 26]: 2.53 fMoles/μl (nM) and 2.29 fMoles/μl (nM) and 3.19 fMoles/μl (nM)
Plasma concentration of Blue-1, replicates A, B, C [1, 27]: 3.50 fMoles/μl (nM) and 3.04 fMoles/μl (nM) and 358 fMoles/μl (nM)
Share of the dye absorbed into the blood from the intestine [3]: more than 0.02%
Acceptable daily intake [4]: 12 mg/kg body weight/day
Absorption by fruit flies [5]: not to be absorbed
